# Experimental data taken from patent US10821115B2, “Compounds that inhibit Mcl-1 protein” (priority 2017, dated 2020).
# Where two headings read alike, the source gives them in different places.
# What was measured:
# [1] = test system: human multiple myeloma cell line, OPM-2; test: Cell viability assay (OPM-2 10 FBS), CellTiter-Glo; type: cell-based
# Summary of the method: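 Serially diluted test compounds are incubated 16 h with cells (3000/well) in RPMI 1640 supplemented with 10% FBS. Viability is then measured by luminescence and IC50 calculated by 4-parameter logistic fit.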
# [2] = target: recombinant human Mcl-1 (residues 171-327) / Bim interaction (Homo sapiens (Human), UniProt Q07820); test: biochemical; type: binding; settings: read-out: Mcl-1 HTRF IC50
# [3] = Homo sapiens, OPM-2, 16 h, read-out: OPM-2 10% FBS IC50 IP, OPM-2 cells, 10% FBS, 16 h, CellTiter-Glo
# [4] = TR-FRET, Mcl-1(171-327) / biotin-Bim (51-76)
# [5] = read-out: OPM-2 10% FBS IC50 IP, OPM-2 cells, 10% FBS, 16 h, CellTiter-Glo
# Sequence of recombinant human Mcl-1 (residues 171-327) / Bim interaction (Q07820 171-327): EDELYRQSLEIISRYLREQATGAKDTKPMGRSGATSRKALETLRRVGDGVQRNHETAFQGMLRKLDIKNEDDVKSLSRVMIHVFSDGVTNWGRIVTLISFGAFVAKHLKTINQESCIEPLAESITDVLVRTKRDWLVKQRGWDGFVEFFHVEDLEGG
SMILES,"IC50 [1, 3]","IC50 [2, 4]","IC50 [1, 5]","IC50 ([1]; Homo sapiens, OPM-2, 16 h, read-out: OPM-2 10% FBS IC50 IP, OPM-2 cells, 10% FBS, 16 h incubation)","IC50 ([2]; 0.1 nM Mcl-1(171-327), 0.05 nM biotin-Bim (51-76))"
"COCCC#C[C@]1(OC)/C=C/C[C@H](C)[C@@H](C)S(=O)(=O)NC(=O)c2ccc3c(c2)N(C[C@@H]2CC[C@H]21)C[C@@]1(CCCc2cc(Cl)ccc21)CO3 [Example 100423, (1S,3′R,6′R,7′S,8′E,11′S,12′R)-6-chloro-7′-methoxy-7′-(4-methoxy-1-butyn-1-yl)-11′,12′-dimethyl-3,4-dihydro-2H,15′H-spiro[naphthalene-1,22′-[20]oxa[13]thia[1,14]diazatetracyclo [14.7.2.0~3,6~.0~19,24~]pentacosa[8,16,18,24]tetraen]-15′-one 13′,13′-dioxide]",99 nM,0.056 nM,,,
"CCOC(=O)C(F)(F)[C@]1(O)/C=C/C[C@H](C)[C@@H](C)S(=O)(=O)NC(=O)c2ccc3c(c2)N(C[C@@H]2CC[C@H]21)C[C@@]1(CCCc2cc(Cl)ccc21)CO3 [Example 100416, ethyl ((1S,3′R,6′R,7′S,8′E,11′S,12′R)-6-chloro-7′-hydroxy-11′,12′-dimethyl-13′,13′-dioxido-15′-oxo-3,4-dihydro-2H-spiro[naphthalene-1,22′-[20]oxa[13]thia[1,14]diazatetracyclo [14.7.2.0~3,6~.0~19,24~]pentacosa[8,16,18,24]tetraen]-7′-yl)(difluoro)acetate]",86 nM,0.092 nM,,,
"CO[C@@]1(CCO)/C=C/C[C@H](C)[C@@H](C)S(=O)(=O)NC(=O)c2ccc3c(c2)N(C[C@@H]2CC[C@H]21)C[C@@]1(CCCc2cc(Cl)ccc21)CO3 [Example 100218, (1S,3′R,6′R,7′S,8′E,11′S,12′R)-6-chloro-7′-(2-hydroxyethyl)-7′-methoxy-11′,12′-dimethyl-3,4-dihydro-2H,15′H-spiro[naphthalene-1,22′-[20]oxa[13]thia[1,14]diazatetracyclo [14.7.2.0~3,6~.0~19,24~]pentacosa[8,16,18,24]tetraen]-15′-one 13′,13′-dioxide]",675 nM,0.621 nM,,,
"C[C@@H]1[C@@H](C)C/C=C/[C@@](O)(CC(=O)N(C)C)[C@@H]2CC[C@H]2CN2C[C@@]3(CCCc4cc(Cl)ccc43)COc3ccc(cc32)C(=O)NS1(=O)=O [Example 100078, 2-((1S,3′R,6′R,7′S,8′E,11′S,12′R)-6-chloro-7′-hydroxy-11′,12′-dimethyl-13′,13′-dioxido-15′-oxo-3,4-dihydro-2H-spiro[naphthalene-1,22′-[20]oxa[13]thia[1,14]diazatetracyclo [14.7.2.0~3,6~.0~19,24~]pentacosa[8,16,18,24]tetraen]-7′-yl)-N,N-dimethylacetamide]",,0.409 nM,2720 nM,,
"CO[C@@]1(Cc2ncco2)/C=C/C[C@H](C)[C@@H](C)S(=O)(=O)NC(=O)c2ccc3c(c2)N(C[C@@H]2CC[C@H]21)C[C@@]1(CCCc2cc(Cl)ccc21)CO3 [Example 100508, (1S,3′R,6′R,7′S,8′E,11′S,12′R)-6-chloro-7′-methoxy-11′,12′-dimethyl-7′-(1,3-oxazol-2-ylmethyl)-3,4-dihydro-2H,15′H-spiro[naphthalene-1,22′-[20]oxa[13]thia[1,14]diazatetracyclo [14.7.2.0~3,6~.0~19,24~]pentacosa[8,16,18,24]tetraen]-15′-one 13′,13′-dioxide]",2500 nM,2.73 nM,,,
"Cc1onc(C[C@]2(O)/C=C/C[C@H](C)[C@@H](C)S(=O)(=O)NC(=O)c3ccc4c(c3)N(C[C@@H]3CC[C@H]32)C[C@@]2(CCCc3cc(Cl)ccc32)CO4)c1C [Example 100578, (1S,3′R,6′R,7′S,8′E,11′S,12′R)-6-chloro-7′-((4,5-dimethyl-1,2-oxazol-3-yl)methyl)-7′-hydroxy-11′,12′-dimethyl-3,4-dihydro-2H,15′H-spiro[naphthalene-1,22′-[20]oxa[13]thia[1,14]diazatetracyclo [14.7.2.0~3,6~.0~19,24~]pentacosa[8,16,18,24]tetraen]-15′-one 13′,13′-dioxide]",595 nM,0.089 nM,,,
"CO[C@@]1(CN2CC(=O)N3CCCC[C@@H]3C2)/C=C/C[C@H](C)[C@@H](C)S(=O)(=O)NC(=O)c2ccc3c(c2)N(C[C@@H]2CC[C@H]21)C[C@@]1(CCCc2cc(Cl)ccc21)CO3 [Example 150, (1S,3′R,6′R,7′S,8′E,11′S,12′R)-6-chloro-7′-methoxy-11′,12′-dimethyl-7′-(((9aR)-4-oxooctahydro-2H-pyrido[1,2-a]pyrazin-2-yl)methyl)-3,4-dihydro-2H,15′H-spiro[naphthalene-1,22′-[20]oxa[13]thia[1,14]diazatetracyclo [14.7.2.0~3,6~.0~19,24~]pentacosa[8,16,18,24]tetraen]-15′-one 13′,13′-dioxide]",,,,245 nM,0.193 nM
"CC[C@@]1(O)CCC[C@H](C)[C@@H](C)S(=O)(=O)NC(=O)c2ccc3c(c2)N(C[C@@H]2CC[C@H]21)C[C@@]1(CCCc2cc(Cl)ccc21)CO3 [Example 100079, (1S,3′R,6′R,7′R,11′S,12′R)-6-chloro-7′-ethyl-7′-hydroxy-11′,12′-dimethyl-3,4-dihydro-2H,15′H-spiro[naphthalene-1,22′-[20]oxa[13]thia[1,14]diazatetracyclo [14.7.2.0~3,6~.0~19,24~]pentacosa[16,18,24]trien]-15′-one 13′,13′-dioxide]",713 nM,0.343 nM,,,
"C[C@@H]1[C@@H](C)CCC[C@](C#N)(NC(=O)c2ccccc2)[C@@H]2CC[C@H]2CN2C[C@@]3(CCCc4cc(Cl)ccc43)COc3ccc(cc32)C(=O)NS1(=O)=O [Example 100255, N-((1S,3′R,6′R,7′S,11′S,12′R)-6-chloro-7′-cyano-11′,12′-dimethyl-13′,13′-dioxido-15′-oxo-3,4-dihydro-2H-spiro[naphthalene-1,22′-[20]oxa[13]thia[1,14]diazatetracyclo [14.7.2.0~3,6~.0~19,24~]pentacosa[16,18,24]trien]-7′-yl)benzamide]",5020 nM,14.4 nM,,,
"CO[C@@]1(CCCO)/C=C/C[C@H](C)[C@@H](C)S(=O)(=O)NC(=O)c2ccc3c(c2)N(C[C@@H]2CC[C@H]21)C[C@@]1(CCCc2cc(Cl)ccc21)CO3 [Example 100178, (1S,3′R,6′R,7′S,8′E,11′S,12′R)-6-chloro-7′-(3-hydroxypropyl)-7′-methoxy-11′,12′-dimethyl-3,4-dihydro-2H,15′H-spiro[naphthalene-1,22′-[20]oxa[13]thia[1,14]diazatetracyclo [14.7.2.0~3,6~.0~19,24~]pentacosa[8,16,18,24]tetraen]-15′-one 13′,13′-dioxide]",,0.432 nM,237 nM,,
"CO[C@]1(CCN2CCN(C)C(=O)C2)/C=C/C[C@H](C)[C@@H](C)S(=O)(=O)NC(=O)c2ccc3c(c2)N(C[C@@H]2CC[C@H]21)C[C@@]1(CCCc2cc(Cl)ccc21)CO3 [Example 100415, (1S,3′R,6′R,7′R,8′E,11′S,12′R)-6-chloro-7′-methoxy-11′,12′-dimethyl-7′-(2-(4-methyl-3-oxo-1-piperazinyl)ethyl)-3,4-dihydro-2H,15′H-spiro[naphthalene-1,22′-[20]oxa[13]thia[1,14]diazatetracyclo [14.7.2.0~3,6~.0~19,24~]pentacosa[8,16,18,24]tetraen]-15′-one 13′,13′-dioxide]",2280 nM,1.95 nM,,,
